Converted amounts (≈) assume the structure as drawn. Like-named read-outs stand apart in the source and are kept apart here. Square brackets hold non-standard residues; d marks the D form. Ends that are not written are not given here. Peptide text beside a SMILES is read from it. * marks the point of attachment. Myristoyl = CCCCCCCCCCCCCC(=O)*; Orn = NCCC[C@H](N)C(=O)O
How the values were obtained:
A. fumigatus AF293 = test: microbe, parasite or virus in culture; type: cell-based, Aspergillus fumigatus; conditions: compound alone; RPMI1640, 37 °C, 48 h; * = paradoxical growth observed (CAS)
Experimental: (§1) All microdilution assays with fungi were carried out in accordance with CLSI protocols from M27 for yeasts and M38 for filamentous fungi, respectively, unless otherwise specified.[64],[65] Briefly, 96-well plates were charged with RPMI1640 media, with operating volume in the first column, 200 μL, and half operating volume, 100 μL, in the remaining wells. Drug stock solution in DMSO was aliquoted into the first well in each row. Half of the volume in the dosed well was serially diluted 2-fold until column 11. Column 11 was used as the negative growth control, and column 12 was used as the positive growth control. ON yeast cultures in YPD were washed twice in DD-H2O, resuspended in PBS, and adjusted to 5000 cfu/mL in RPMI. The 96-well plate was inoculated with 100 μL aliquots of cell suspension per well. Plates were incubated at 37 °C for 2 days.

Cn apt1Δ = test: microbe, parasite or virus in culture; type: cell-based, Cryptococcus neoformans; conditions: 37 °C, 48 h
Experimental: (§2) Previous studies have shown that modifying microbiological media with salts such as CaCl2 can have a drastic effect on the growth of fungi and their responses to antifungals.[19],[35] In the case of CaCl2, the divalent cation, Ca^2+, is involved in fungal cell stress response. To understand how the peptide activity may involve calcium and stress response, the MICs of KKOO, KKOO-NH2, FLC, and CAS were assessed as a function of the calcium concentration in liquid YPD media. It was observed that calcium enrichment completely desensitized the wild-type strain to KKOO and KKOO-NH2, Tables 7 and 8, respectively. Effects of calcium enrichment on the susceptibility of Cryptococcus to CAS similar to literature values were recorded, Supporting Information, Table S7.[35]
as §1

Cn crm1Δ = test: microbe, parasite or virus in culture; type: cell-based, Cryptococcus neoformans; conditions: YPD + 0 mM Ca2+, 37 °C, 48 h
Experimental: as §2, §1

Cn Crm1-oe = test: microbe, parasite or virus in culture; type: cell-based, Cryptococcus neoformans; conditions: YPD + 0 mM Ca2+, 37 °C, 48 h
Experimental: as §2, §1

C. neoformans H99 [1] = type: cell-based, Cryptococcus neoformans; conditions: 2× MIC; subsequent rebound of the population through 8 h; RPMI1640, 30 °C
Experimental: Culture tubes were prepared with aliquots of 2.0 mL of RPMI1640 (containing Q, MOPS, pH = 7, no phenol red). The tubes were sealed to prevent evaporation and were equilibrated with the incubation chamber overnight, at 30 °C. On the day of the experiment, overnight yeast cultures in YPD were washed twice with DD-H2O and resuspended in DD-H2O. The OD600 of the cell suspension was adjusted to 4.6, ≈2 × 10^6 cfu/mL, in DD-H2O. A 200 μL aliquot of adjusted cell suspension was added systematically to each tube, followed by 200 μL sampling for the 0 h time point. Immediately after sampling, the antifungal compounds were added, and the tubes were placed in the incubator at 30 °C with shaking at 225 rpm. The sampled aliquot was transferred to a 96-well plate and serially diluted six times, 10-fold each time. The resulting cell suspensions were spotted onto YPD plates in a grid pattern of 5 μL per spot. Subsequently, tubes were briefly removed from the incubator, and 100 μL aliquots were sampled at 2, 4, 6, and 8 h time points. Cells were counted on the YPD plates at either 24 or 48 h after plate spotting, depending on when the colonies were countable. Images of the YPD plates were recorded on the Bio-Rad Gel imager after 48 h of incubation at 30 °C. […] 2 C = number of colonies counted, Df = dilution factor = 10^n–1, n = column that the cells were counted, and Vf = volume factor = 1/0.005 mL.

C. neoformans apt4Δ = test: microbe, parasite or virus in culture; type: cell-based, Cryptococcus neoformans; conditions: compound alone; RPMI1640, 37 °C, 48 h
Experimental: as §1

C. neoformans Crm1^OE = test: microbe, parasite or virus in culture; type: cell-based, Cryptococcus neoformans; conditions: compound alone; RPMI1640, 37 °C, 48 h
Experimental: as §1

C. neoformans cdc50Δ = test: microbe, parasite or virus in culture; type: cell-based, Cryptococcus neoformans
Experimental: as §1

C. neoformans apt1Δ = test: microbe, parasite or virus in culture; type: cell-based, Cryptococcus neoformans; conditions: compound alone; RPMI1640, 37 °C, 48 h
Experimental: as §1

C. neoformans apt3Δ = test: microbe, parasite or virus in culture; type: cell-based, Cryptococcus neoformans; conditions: compound alone; RPMI1640, 37 °C, 48 h
Experimental: as §1

C. neoformans H99 [2] = test: microbe, parasite or virus in culture; type: cell-based, Cryptococcus neoformans
Experimental: as §1

C. neoformans crm1Δ = test: microbe, parasite or virus in culture; type: cell-based, Cryptococcus neoformans; conditions: compound alone; RPMI1640, 37 °C, 48 h
Experimental: as §1

C. neoformans apt2Δ = test: microbe, parasite or virus in culture; type: cell-based, Cryptococcus neoformans; conditions: compound alone; RPMI1640, 37 °C, 48 h
Experimental: as §1

C. neoformans MRL862 = test: microbe, parasite or virus in culture; type: cell-based, Cryptococcus neoformans; conditions: compound alone; RPMI1640, 37 °C, 48 h
Experimental: as §1

C. auris B11245 = test: microbe, parasite or virus in culture; type: cell-based, Candida auris; conditions: compound alone; RPMI1640, 37 °C, 48 h; * = paradoxical growth observed (CAS)
Experimental: as §1

Cn H99 = test: microbe, parasite or virus in culture; type: cell-based, Cryptococcus neoformans; conditions: 37 °C, 48 h
Experimental: as §2
(§3) In order to control for the effects of enriching YPD with a divalent cation, MICs and ROS production were also measured as a function of the MgCl2 supplement at the same millimolar concentrations of cation as in the CaCl2-modified experiments. […] No peptide susceptibility changes were observed against Cn cdc50Δ in magnesium-enriched media, Table S9. ROS production in H99 induced by peptide exposure was inhibited after 30 min of treatment in the magnesium-enriched condition, similar to the levels observed in the calcium-enriched media at 16 μg/mL KKOO-NH2, Figure S1. […] The link between peptide activity and calcium homeostasis may be vital in understanding precisely how the peptide kills fungal cells and requires more research to elucidate.
as §1

Cn cdc50Δ = test: microbe, parasite or virus in culture; type: cell-based, Cryptococcus neoformans; conditions: 37 °C, 48 h
Experimental: as §2, §3, §1

C. albicans SC5413 = test: microbe, parasite or virus in culture; type: cell-based, Candida albicans
Experimental: as §1

C. glabrata 2001 = test: microbe, parasite or virus in culture; type: cell-based, Candida glabrata
Experimental: as §1

C. glabrata FKS2-S663P = test: microbe, parasite or virus in culture; type: cell-based, Candida glabrata; conditions: compound alone; RPMI1640, 37 °C, 48 h
Experimental: as §1

C. glabrata FKS1-S629P = test: microbe, parasite or virus in culture; type: cell-based, Candida glabrata; conditions: compound alone; RPMI1640, 37 °C, 48 h
Experimental: as §1

C. neoformans H99 [3] = conditions: previously published peptide; cited from earlier work
C. neoformans H99 [4] = test system: C. neoformans H99; design: method as in PMID 35377230; conditions: with CAS, additive drug synergy; cited from earlier work
Source text: We endeavored to develop an inhibitor to target flippase function in Cn and harness the critical importance of Cdc50 in antifungal drug resistance and virulence. […] The peptide sequence was identified using an epitope approach. First, anti-Cdc50 polyclonal antibodi ...

[5] = Table S1, unit and conditions not given (MICs elsewhere in μg/mL)
[6] = compound alone, RPMI1640, 37 °C, 48 h

Molecule: CCCCCCCCCCCCCC(=O)N[C@@H](Cc1c[nH]c2ccccc12)C(=O)NCC(=O)NCC(=O)N[C@H](C(=O)N[C@@H](CCCN)C(=O)N[C@@H](CCCN)C(=O)N[C@@H](CC(N)=O)C(=O)N[C@@H](Cc1ccc(O)cc1)C(=O)N[C@@H](C)C(=O)O)[C@@H](C)CC [KKOO] (Myristoyl-WGGI[Orn][Orn]NYA-OH)
- MIC (A. fumigatus AF293): > 128 µg/mL
- MIC (Cn apt1Δ; YPD + 0 mM Ca2+): 8 µg/mL
- MIC (Cn apt1Δ; YPD + 2.5 mM Ca2+): 32 µg/mL
- MIC (Cn crm1Δ): 8 µg/mL
- MIC (Cn Crm1-oe): 8 µg/mL
- time of peak killing activity (C. neoformans H99 [1]): ≤ 2 h
- MIC (C. neoformans apt4Δ): 8 µg/mL (≈ 6.57 µM)
- MIC (C. neoformans Crm1^OE): 8 µg/mL (≈ 6.57 µM)
- MIC (SAR screen peptides) (C. neoformans cdc50Δ; [5]): 4
- MIC (C. neoformans cdc50Δ; [6]): 4 µg/mL (≈ 3.28 µM)
- MIC (C. neoformans apt1Δ): 4 µg/mL (≈ 3.28 µM)
- MIC (C. neoformans apt3Δ): 8 µg/mL (≈ 6.57 µM)
- MIC (SAR screen peptides) (C. neoformans H99 [2]; [5]): 16
- MIC (C. neoformans H99 [2]; [6]): 16 µg/mL (≈ 13.1 µM)
- MIC (C. neoformans crm1Δ): 8 µg/mL (≈ 6.57 µM)
- MIC (C. neoformans apt2Δ): 8 µg/mL (≈ 6.57 µM)
- MIC (C. neoformans MRL862): 8 µg/mL (≈ 6.57 µM)
- MIC (C. auris B11245): > 128 µg/mL
- MIC (Cn H99; YPD + 0 mM Ca2+): 32 µg/mL
- MIC (Cn H99; YPD + 0 mM Mg2+): 16 µg/mL
- MIC (Cn H99; YPD + 2.5 mM Ca2+): >128 µg/mL
- MIC (Cn H99; YPD + 2.5 mM Mg2+): 32 µg/mL
- MIC (Cn H99; YPD + 5 mM Ca2+): >128 µg/mL
- MIC (Cn H99; YPD + 5 mM Mg2+): 32 µg/mL
- MIC (Cn H99; YPD + 10 mM Ca2+): >128 µg/mL
- MIC (Cn H99; YPD + 10 mM Mg2+): 32 µg/mL
- MIC (Cn H99; YPD + 20 mM Ca2+): >128 µg/mL
- MIC (Cn H99; YPD + 20 mM Mg2+): 128 µg/mL
- MIC (Cn cdc50Δ; YPD + 0 mM Ca2+): 4 µg/mL
- MIC (Cn cdc50Δ; YPD + 0 mM Mg2+, unit inferred): 8 µg/mL
- MIC (Cn cdc50Δ; YPD + 2.5 mM Ca2+): 8 µg/mL
- MIC (Cn cdc50Δ; YPD + 2.5 mM Mg2+, unit inferred): 8 µg/mL
- MIC (Cn cdc50Δ; YPD + 5 mM Ca2+): 8 µg/mL
- MIC (Cn cdc50Δ; YPD + 5 mM Mg2+, unit inferred): 8 µg/mL
- MIC (Cn cdc50Δ; YPD + 10 mM Ca2+): 8 µg/mL
- MIC (Cn cdc50Δ; YPD + 10 mM Mg2+, unit inferred): 4 µg/mL
- MIC (Cn cdc50Δ; YPD + 20 mM Ca2+): 8 µg/mL
- MIC (Cn cdc50Δ; YPD + 20 mM Mg2+, unit inferred): 8 µg/mL
- MIC (SAR screen peptides) (C. albicans SC5413; [5]): 16
- MIC (C. albicans SC5413; [6]): 32 µg/mL (≈ 26.3 µM)
- MIC (SAR screen peptides) (C. glabrata 2001; [5]): 16
- MIC (C. glabrata 2001; [6]): 16 µg/mL (≈ 13.1 µM)
- MIC (C. glabrata FKS2-S663P): 16 µg/mL (≈ 13.1 µM)
- MIC (C. glabrata FKS1-S629P): 16 µg/mL (≈ 13.1 µM)

Molecule: AW9-Ma (Myristoyl-WGGIKKNYA)
- MIC (C. neoformans H99 [3]): 64 µg/mL
- fractional inhibition concentration (FIC) index (C. neoformans H99 [4]): 0.5

Source: publication PMC11555678, “Improved Broad Spectrum Antifungal Drug Synergies with Cryptomycin, a Cdc50-Inspired Antifungal Peptide” (ACS Infectious Diseases, 2024)
